Data published in the supplement of paper PMC13380429.

Experiments:
Details in all cases: 72 h
[1] = system: Vero E6; assay: drug sensitivity score (DSS) for viability; higher = more toxic; extreme values may be limits of the assay
[2] = system: Caco-2; assay: as above
[3] = system: Calu-3; assay: as above
[4] = system: HepG2; assay: as above
[5] = system: Vero E6; assay: relative viability EC50 (midpoint between 100% and the lowest measured viability); higher = less toxic
[6] = system: Caco-2; assay: as above
[7] = system: HepG2; assay: as above
[8] = system: Vero E6; assay: cell viability relative to DMSO; higher = less toxic
[9] = system: Caco-2; assay: as above
[10] = system: Calu-3; assay: as above
[11] = system: HepG2; assay: as above
[12] = system: U2OS; assay: drug sensitivity score (DSS) for viability; higher = more toxic; extreme values may be limits of the assay
[13] = system: U2OS; assay: relative viability EC50 (midpoint between 100% and the lowest measured viability); higher = less toxic
[14] = system: U2OS; assay: cell viability relative to DMSO; higher = less toxic

Row | SMILES | drug sensitivity score [1] | drug sensitivity score [2] | drug sensitivity score [3] | drug sensitivity score [4] | relative viability EC50 [5] [µM] | relative viability EC50 [6] [µM] | relative viability EC50 [7] [µM] | cell viability ([8]; 1 nM) [%] | cell viability ([8]; 10 nM) [%] | cell viability ([8]; 100 nM) [%] | cell viability ([8]; 1000 nM) [%] | cell viability ([8]; 10000 nM) [%] | cell viability ([9]; 1 nM) [%] | cell viability ([9]; 10 nM) [%] | cell viability ([9]; 100 nM) [%] | cell viability ([9]; 1000 nM) [%] | cell viability ([9]; 10000 nM) [%] | cell viability ([10]; 1 nM) [%] | cell viability ([10]; 10 nM) [%] | cell viability ([10]; 100 nM) [%] | cell viability ([10]; 1000 nM) [%] | cell viability ([10]; 10000 nM) [%] | cell viability ([11]; 1 nM) [%] | cell viability ([11]; 10 nM) [%] | cell viability ([11]; 100 nM) [%] | cell viability ([11]; 1000 nM) [%] | cell viability ([11]; 10000 nM) [%] | drug sensitivity score [12] | relative viability EC50 [13] [µM] | cell viability ([14]; 1 nM) [%] | cell viability ([14]; 10 nM) [%] | cell viability ([14]; 100 nM) [%] | cell viability ([14]; 1000 nM) [%] | cell viability ([14]; 10000 nM) [%]
1 | c1ccc2c(Oc3nc(Nc4ccc(N5CCOCC5)cc4)c4ncn(C5CCCCC5)c4n3)cccc2c1 [purmorphamine] | 0 | 0 | 0.7 | 1.7 | > 10 | > 10 | > 10 | 99.2 | 96.1 | 100 | 91.7 | 90.1 | 94.9 | 94.2 | 89.8 | 98.7 | 85.9 | 92.7 | 92.4 | 94.3 | 106 | 74.3 | 97.4 | 105 | 103 | 91.9 | 77.8 | – | – | – | – | – | – | –
2 | Cc1cc(C)cc(C(=O)NOCCCCCC(=O)NO)c1 [LMK-235] | 12.7 | 10.4 | – | 15.1 | 0.777 | 1.22 | 0.441 | 95.3 | 102 | 96.1 | 39.8 | -0.1 | 107 | 86.9 | 96.4 | 60.3 | 0.9 | – | – | – | – | – | 95.1 | 93.3 | 79.4 | 34.4 | 0.3 | 11.6 | 0.884 | 95.9 | 91.3 | 90.4 | 49.3 | 1.9
3 | CC(=O)c1ccc2c(c1)N(CCCN1CCC(CCO)CC1)c1ccccc1S2 [piperacetazine] | 0 | – | 0 | 0.9 | – | – | – | – | – | – | – | – | – | – | – | – | – | – | – | – | – | – | – | – | – | – | – | 0 | – | – | – | – | – | –
4 | C[N+](C)(C)NCCC(=O)O [meldonium] | 0 | 0 | – | 0 | > 10 | > 10 | > 10 | 99.1 | 105 | 95.5 | 97 | 101 | 96.1 | 101 | 102 | 92 | 102 | – | – | – | – | – | 97.6 | 96.1 | 98.4 | 107 | 101 | 0 | > 10 | 102 | 99.1 | 104 | 97.7 | 101
5 | O=C(NOCCO)c1cc(CN2OCCCC2=O)c(F)c(F)c1Nc1ccc(I)cc1F | 15 | 13.5 | 15.9 | 26.2 | – | – | – | 89.3 | 85.2 | 61.2 | 50.7 | 50.4 | 88.1 | 76.9 | 67.9 | – | 68.2 | 96 | 92.1 | 61.7 | 43.4 | 32.7 | 100 | 70 | 34 | 19 | 21.6 | 4.9 | – | 97.2 | 92.9 | 90.1 | 87.4 | 43.7
6 | CC#CC(=O)N1CCC[C@H]1c1nc(-c2ccc(C(=O)Nc3ccccn3)cc2)c2c(N)nccn12 [acalabrutinib] | 0 | 0 | 7.3 | 0 | > 10 | > 10 | > 10 | 91.4 | 99.7 | 93.1 | 96.7 | 98.2 | 92.1 | 101 | 99.4 | 90.5 | 97.8 | 99.5 | 89.1 | 84.2 | 67.8 | 65.3 | 95.9 | 96.7 | 95 | 103 | 102 | 0 | > 10 | 99.3 | 95.6 | 105 | 95.3 | 102
7 | CN(c1ccccc1CNc1nc(Nc2ccc3c(c2)CC(=O)N3)ncc1C(F)(F)F)S(C)(=O)=O | 9.6 | 6 | – | 10.9 | 1.07 | 1.61 | 0.895 | 97 | 88.8 | 81.2 | 65.4 | 10.3 | 92.4 | 91.6 | 91.5 | 83.8 | 33.6 | – | – | – | – | – | 92.8 | 89.9 | 92.9 | 51.5 | 7.2 | 9.2 | 1.58 | 98.2 | 102 | 94.3 | 76.1 | 0.2
8 | CC(C)N1CCN(c2ccc(OCC3COC(Cn4cncn4)(c4ccc(Cl)cc4Cl)O3)cc2)CC1 (centres undefined) [terconazole] | 1.9 | 0.9 | 2.6 | 3.3 | > 10 | – | – | 116 | 96.8 | 106 | 90.8 | 76.8 | 90.6 | 98.2 | 94.3 | 108 | 70.9 | 103 | 105 | 89.1 | 97.8 | 54.7 | 124 | 121 | 124 | 89.8 | 62.6 | 0 | > 10 | 97.4 | 104 | 105 | 104 | 93.8
9 | Cc1ccc(-c2c(-c3nn(C)c4ncnc(N5CC[C@H](N6CCCCC6)C5)c34)cnn2C)cc1 | – | 0 | – | – | – | > 10 | – | – | – | – | – | – | 106 | 102 | 106 | 96.1 | 100 | – | – | – | – | – | – | – | – | – | – | 0 | > 10 | 104 | 99.5 | 99 | 98.9 | 100
10 | CC1(C)CCC(C)(C)c2cc(NC(=O)c3ccc(C(=O)O)cc3)ccc21 [tamibarotene] | 0 | 0.4 | 10.1 | 0 | > 10 | > 10 | > 10 | 101 | 101 | 100 | 91.6 | 96.5 | 98 | 100 | 95.4 | 98.8 | 83.8 | 95.4 | 83.6 | 73.5 | 67.8 | 70.1 | 110 | 98.7 | 114 | 109 | 108 | 0.3 | > 10 | 99 | 96.1 | 90.6 | 91.4 | 87.7
11 | Cc1cc(CC(C)CC(C)(C)C)n(O)c(=O)c1 (centres undefined) [piroctone-olamine] | 0 | 1.8 | 3.4 | 0 | > 10 | – | > 10 | 102 | 96.1 | 104 | 95.5 | 108 | 100 | 96.3 | 103 | 97.6 | 68 | 98 | 97.1 | 102 | 80 | 72.4 | 97.6 | 102 | 102 | 110 | 93.3 | 4.2 | – | 95.1 | 93.9 | 100 | 88 | 54.8
12 | C#C[C@]1(O)CC[C@H]2[C@@H]3CCC4=C(CCC(=O)C4)[C@H]3CC[C@@]21C [noretynodrel] | 0 | 0 | – | – | > 10 | > 10 | – | 95.2 | 99 | 93.7 | 95.9 | 101 | 99.5 | 105 | 104 | 96.1 | 99 | – | – | – | – | – | – | – | – | – | – | – | – | – | – | – | – | –
13 | CCCNC(=O)NS(=O)(=O)c1ccc(Cl)cc1 [chlorpropamide] | 0 | 0 | – | 0 | > 10 | > 10 | > 10 | 97.5 | 98.2 | 102 | 103 | 104 | 92.6 | 108 | 87.1 | 99.1 | 95.2 | – | – | – | – | – | 104 | 103 | 102 | 95.4 | 99.8 | 0 | > 10 | 97.4 | 103 | 97.4 | 99.9 | 93.6
14 | COc1cc(-c2ncn(/C=C\C(=O)OC(C)C)n2)cc(C(F)(F)F)c1 [KPT-185] | 11.6 | 9 | 10 | 15.1 | 0.573 | 0.48 | 0.218 | 97.1 | 102 | 96.4 | 41.8 | 20 | 94.7 | 96.5 | 92.2 | 57 | 38.9 | 99.4 | 91.1 | 81.8 | 55.6 | 51.9 | 105 | 100 | 84.3 | 29.1 | 23.9 | 17.6 | 0.284 | 98.1 | 93.7 | 89.5 | 11.3 | 4.1
15 | C#C[C@]1(O)CC[C@H]2[C@@H]3CCC4=Cc5oncc5C[C@]4(C)[C@H]3CC[C@@]21C [danazol] | 0 | – | 0 | 0 | – | – | – | – | – | – | – | – | – | – | – | – | – | – | – | – | – | – | – | – | – | – | – | 0 | – | – | – | – | – | –
16 | CCOC(=O)c1ccc(NC2CCCCC2)c(N)c1 [ferrostatin-1] | 0 | 0.1 | – | 0 | > 10 | > 10 | > 10 | 97.6 | 101 | 94.3 | 95.1 | 100 | 99.8 | 99.9 | 102 | 102 | 86.1 | – | – | – | – | – | 94 | 108 | 97.8 | 97 | 113 | 0 | > 10 | 97.5 | 96.6 | 98.6 | 98.9 | 96.6
17 | CCOc1ccc2nc(S(N)(=O)=O)sc2c1 [ethoxzolamide] | 0 | 0 | 0 | 0 | – | – | – | 84.1 | 93.1 | 89.4 | 96.3 | 116 | – | 102 | 135 | 98.6 | 95.5 | 95.3 | 101 | 101 | 101 | 113 | 101 | 104 | 98.6 | 125 | 116 | 0 | – | 96.6 | 97.9 | 97.6 | 99.3 | 105
18 | O=C(CCCN1CCN(c2ccccn2)CC1)c1ccc(F)cc1 [azaperone] | 0 | – | 0.1 | 0.7 | – | – | – | – | – | – | – | – | – | – | – | – | – | – | – | – | – | – | – | – | – | – | – | 0 | – | – | – | – | – | –
19 | CN(C)CCn1nnnc1SCC1=C(C(=O)O)N2C(=O)[C@@H](NC(=O)Cc3csc(N)n3)[C@H]2SC1 [cefotiam] | 0 | 0 | – | 0 | > 10 | > 10 | > 10 | 99.3 | 95.5 | 96 | 88.1 | 104 | 106 | 96.7 | 101 | 103 | 104 | – | – | – | – | – | 102 | 94.5 | 99.7 | 96.5 | 104 | 0 | > 10 | 100 | 97.2 | 106 | 103 | 103
